Results from article PMC6620467, “Gram-scale synthesis of FICZ, a photoreactive endogenous ligand of the aryl hydrocarbon receptor” (Scientific Reports, 2019).
Like-named read-outs stand apart in the source and are kept apart here. Each block holds one compound with its values, some of them ahead of it.

Assays:
human AhR = target: T1, human AhR (Homo sapiens, UniProt P35869); assay: cyp1a1 promoter β-lactamase reporter gene assay for AhR activation (CYP1A1-bla-LS180 cells)
T1 sequence (P35869 11-848): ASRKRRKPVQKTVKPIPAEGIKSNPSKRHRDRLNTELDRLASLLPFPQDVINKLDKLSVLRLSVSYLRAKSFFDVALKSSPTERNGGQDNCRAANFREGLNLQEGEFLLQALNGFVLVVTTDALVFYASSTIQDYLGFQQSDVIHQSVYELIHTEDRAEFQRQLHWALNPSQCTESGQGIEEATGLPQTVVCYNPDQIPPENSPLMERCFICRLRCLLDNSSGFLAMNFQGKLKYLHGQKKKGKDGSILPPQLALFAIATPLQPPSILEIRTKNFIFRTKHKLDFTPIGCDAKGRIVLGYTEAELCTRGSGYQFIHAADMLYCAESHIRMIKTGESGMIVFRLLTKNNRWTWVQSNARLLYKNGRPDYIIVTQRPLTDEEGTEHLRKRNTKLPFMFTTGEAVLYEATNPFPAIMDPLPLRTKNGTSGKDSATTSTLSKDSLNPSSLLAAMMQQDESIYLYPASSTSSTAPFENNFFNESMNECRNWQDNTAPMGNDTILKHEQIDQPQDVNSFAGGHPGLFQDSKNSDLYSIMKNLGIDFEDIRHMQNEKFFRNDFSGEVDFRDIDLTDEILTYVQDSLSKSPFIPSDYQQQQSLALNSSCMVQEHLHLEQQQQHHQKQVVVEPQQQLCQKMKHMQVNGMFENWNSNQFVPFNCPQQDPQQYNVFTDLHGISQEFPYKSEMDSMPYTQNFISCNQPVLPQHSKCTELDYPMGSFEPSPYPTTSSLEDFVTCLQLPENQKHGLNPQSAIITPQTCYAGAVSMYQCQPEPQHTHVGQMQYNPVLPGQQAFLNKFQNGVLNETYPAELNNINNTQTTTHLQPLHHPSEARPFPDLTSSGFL
Description: We employed a commercially available assay for AhR ligands in which a cell line had been engineered to express a reporter gene composed of the cyp1a1 promoter driving expression of a β-lactamase reporter. AhR ligands were detected by the increased expression of β-lactamase, which was quantified using a fluorescent substrate (see Materials and methods).
Intestinal human colon adenocarcinoma LS180 cells stably transfected with a β-lactamase reporter gene downstream of the cyp1a1 promoter were obtained from Invitrogen (catalog number K1678) and were used in accordance with the protocol described at https://www.thermofisher.com/document-connect/document-connect.html?url=https%3A%2F%2Fassets.thermofisher.com%2FTFS-Assets%2FLSG%2Fmanuals%2Fgeneblazer_cyp1a1blals0180_man.pdf, but adapted to run in 384-well plates.
CYP1A1-bla-LS180 cells (Invitrogen, catalog number K1678) were suspended in assay media (OptiMEM, 1% charcoal stripped serum, 1 mM sodium pyruvate, 0.1 mM NEAA) at a density of 20000 cells/mL. The compounds were dissolved in DMSO at a concentration of 10 mM. 0.5 mL of the compound solutions were added to a 384-well black, clear bottom, cell-coat assay plate (Griener Bio-one). […] A 50 μL aliquot of cell suspension was added to each well, and the compound plate was incubated overnight at 37 °C in 5% CO2. The plate was equilibrated at room temperature for 30 min before adding 10 μL of the LiveBLAzer™ FRET B/G substrate solution (Life Technologies) to each well. The plate was incubated for 90 min at room temperature in the dark before being read on a Perkin Elmer Envision using the bottom read fluorescence program with excitation at 400 nm and detection at 460/535 nm.

[1] = Photostability test of DMSO-d6 solutions by 1H NMR (maleic acid internal reference); assay type: physicochemical
Protocol: Maleic acid was employed as an internal NMR reference.
The solution was analyzed by ^1H NMR as time point zero. 0.5 mL of the solution was placed into separate ICH 20 mL Flint clear glass bottles that were irradiated in a photostability chamber with illuminance set to 11000 lux as measured by a digital light meter. The contents of separate bottles were checked by ^1H NMR at 1 h, 2 h, 3 h, 4 h, 5 h, 7 h, 10 h, 16 h, and 24 h. […] A parallel experiment was run under the same conditions with ICZ (12.4 mg) and maleic acid (6.4 mg) in 5.1 mL of DMSO-d6 and stability data collected at 1 h, 2 h, 4 h, 6 h, 12 h, 18 h, and 24 h.
The solution was analyzed by ^1H NMR as time point zero. 0.5 mL of the solution was placed into separate ICH 20 mL Flint clear glass bottles that were placed in direct sunlight with illuminance of 63000 lux as measured by a digital light meter (from 1:00 PM to 3:40 PM on March 17, 2015, a sunny day with minimal clouds in Durham, NC, USA). The contents of separate bottles were checked by ^1H NMR at 1.5 min, 3 min, 10 min, 30 min, and 93 min.
The solution was analyzed by NMR as time point zero. The solution was then divided into four ICH 20 ml Flint clear glass bottles: Bottle A was exposed to air and was unprotected from the bright light; Bottle B: was flushed with nitrogen and left unprotected from the bright light; Bottle C was exposed to air but covered by aluminum-foil; and Bottle D was flushed with nitrogen and covered by aluminum foil. All bottles were placed in a photostability chamber with illuminance set to 11100 lux. The contents of each bottle were checked by ^1H NMR at 1 d, 4 d, 8 d, 14 d and 21 d using the quantification procedure described in Method 1.

SMILES: CCOC(=O)c1c2[nH]c3ccccc3c2cc2[nH]c3ccccc3c12 [Compound 10, Ethyl 5,11-dihydroindolo[3,2-b]carbazole-6-carboxylate]
EC50 (human AhR): 160 ± 40 nM

SMILES: O=C1c2[nH]c3ccccc3c2C(=O)c2[nH]c3ccccc3c21 [Compound 13, Indolo[3,2-b]carbazole-6,12-dione]
EC50 (human AhR): 70 ± 15 nM
decrease in potency for activation of AhR versus FICZ (1) (human AhR; cyp1a1 reporter gene assay): at least 7 fold

SMILES: c1ccc2c(c1)[nH]c1cc3c(cc12)[nH]c1ccccc13 [ICZ (12), reference compound]
decomposition rate relative to FICZ (1), times slower ([1]; DMSO-d6 solution, air and light, 11000 lux, identical conditions): at least 10 times
EC50 (human AhR): 30 ± 10 nM

SMILES: Clc1cc2c(cc1Cl)Oc1cc(Cl)c(Cl)cc1O2 [TCDD, reference compound]
EC50 (human AhR; read-out: EC50 of standard AhR ligand in cyp1a1 reporter assay, control experiments, data not shown): 0.31 nM

Now from value to compound, other results behind:

EC50 (human AhR): 400 ± 100 nM
potency as AhR agonist relative to FICZ (1), times less potent (human AhR; cyp1a1 reporter gene assay): 40 times
SMILES: O=C(O)c1c2[nH]c3ccccc3c2cc2[nH]c3ccccc3c12 [CICZ (9), 5,11-Dihydroindolo[3,2-b]carbazole-6-carboxylic acid]

EC50 (human AhR): 160 ± 90 nM
SMILES: OCc1c2[nH]c3ccccc3c2cc2[nH]c3ccccc3c12 [Compound 11, (5,11-Dihydroindolo[3,2-b]carbazol-6-yl)methanol]

time to complete decomposition ([1]; Condition A: DMSO solution, bright light (11000 lux) and air): ≤ 1 days
decomposition, Condition B ([1]; DMSO solution, bottle flushed with nitrogen, 11000 lux light, over 28 d): much slower
decomposition, Condition D ([1]; DMSO solution, removal of air and protection from light, over 28 d): slowest rate of decomposition
half-life at 3 mg/mL ([1]; DMSO-d6 solution in clear Flint glass bottle, DMSO-d6 solution, air and light, 11000 lux, clear Flint bottle, read-out: half-life of decomposition (converted)): ~3 h
half-life at 2.125 mg/mL ([1]; DMSO-d6 solution in clear Flint glass bottle, DMSO-d6 solution, air, direct sunlight 63000 lux, read-out: half-life of decomposition): ~0.5 h
stability as pure solid ([1]; pure solid): stable
SMILES: O=Cc1c2[nH]c3ccccc3c2cc2[nH]c3ccccc3c12 [FICZ (1), 6-Formylindolo[3,2-b]carbazole]
decomposition, Condition C ([1]; DMSO solution, air, protected from light with aluminum foil, over 28 d): further slowed, but did not prevent the decomposition
